The nature of this data set: Measurement of log P values by HPLC on reversed phase columns (methods [a] pH 2.3, [b] pH 2.7, [c] pH 7.8). In kind it is physicochemical. Conditions: for chromatographic logP: reversed phase HPLC columns. In outline:
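Determined per EEC Directive 79/831 Annex V.A8 by reversed-phase HPLC, 10-95% acetonitrile gradient: [a] pH 2.3, 0.1% phosphoric acid; [b] LC-MS, pH 2.7, 0.1% formic acid; [c] LC-MS, pH 7.8, 0.001 molar ammonium hydrogen carbonate. Calibrated with C3-C16 alkan-2-ones by retention-time interpolation.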

Where [1] appears, read: HPLC on reversed phase column, method [b], pH 2.7.
Where [2] appears, read: HPLC on reversed phase columns, method [b], pH 2.7.
Setting [3] is: HPLC-MS, method letter not given, read-out: log P.
Setting [4] is: HPLC reversed phase, method [b] (pH 2.7).
The mark [5] stands for this setting: HPLC reversed phase, method [c] pH 7.8.

SMILES strings stand for the structures. Where two headings read alike, the source gives them in different places.

One may read the log P as a log measure of how a compound divides between an organic and an aqueous phase. Low readings indicate a more hydrophilic compound, high ones a more lipophilic compound.

As for `O=C(N[C@@H]1CC[C@H]1c1ccc(Cl)cc1C(F)(F)F)c1cccnc1Cl` (relative stereo) [Example 715], the logP under setting [1] is 3.33^[b].

Consider `O=C(N[C@@H]1CC[C@H]1c1ccc(Cl)cc1C(F)(F)F)c1nccnc1Cl` (relative stereo) [Example 716], for which the logP under setting [1] was 3.56^[b].

Consider `O=C(N[C@@H]1CC[C@@H]1c1ccc(Cl)cc1C(F)(F)F)c1nccnc1Cl` (relative stereo) [Example 717], for which the logP under setting [2] was 3.24^[b].

In the case of `Cn1cc(C(=O)NC2CCC2c2ccc(Cl)cc2Cl)c(C(F)F)n1` (single isomer, unassigned) [Preparation Example 2 cis-Isomer, cis-N-[2-(2,4-dichlorophenyl)cyclobutyl]-3-(difluoromethyl)-1-methyl-1H-pyrazole-4-carboxamide], the chromatographic logP under setting [3] was determined as 2.95.

Turning to `Cn1cc(C(=O)NC2CCC2c2ccc(Cl)cc2Cl)c(C(F)F)n1` (single isomer, unassigned) [Preparation Example 2 trans-Isomer, trans-N-[2-(2,4-dichlorophenyl)cyclobutyl]-3-(difluoromethyl)-1-methyl-1H-pyrazole-4-carboxamide], the “log P” value (HPLC-MS, method letter not given) came out at 3.26.

For `O=C(N[C@H]1CCC1c1ccccc1C(F)(F)F)c1ccccc1Cl` (stereo in doubt) [Preparation Example 4, cis-2-chloro-N-{2-[2-(trifluoromethyl)phenyl]cyclobutyl}benzamide], the chromatographic logP under setting [3] was 3.3.

On to `O=C(N[C@H]1CCC1c1ccccc1C(F)(F)F)c1ccccc1I` (stereo in doubt) [Preparation Example 5, cis-2-iodo-N-{2-[2-(trifluoromethyl)phenyl]cyclobutyl}benzamide], for which the chromatographic logP under setting [3] came to 3.44.

Consider `O=C(NC1CC1c1ccc(Cl)cc1)c1sccc1Cl` (stereo not drawn) [Compound 203], for which the logP is, setting by setting: (method [b], HPLC reversed phase, pH 2.7) 3.51^[b]; (method [c], HPLC reversed phase, pH 7.8) 3.45^[c];.

Turning to `O=C(NC1CCC1c1ccccc1Cl)c1ncccc1Cl` (stereo not drawn) [Compound 238, trans-3-chloro-N-[2-(2-chlorophenyl)cyclobutyl]pyridine-2-carboxamide], the chromatographic logP by setting is: under setting [3], 3.06; (pH 2.7, method [b], HPLC reversed phase, pH 2.7, read-out: logP) 3.06.

On to `O=C(NC1CC1c1ccc(Cl)cc1)c1ccccc1I` (stereo not drawn) [Compound 273], for which the logP reads like this: under setting [4], 2.94^[b]; under setting [5], 2.88^[c];.

In the case of `O=C(NC1CC1c1ccc(Cl)cc1)c1cccnc1Cl` (stereo not drawn) [Compound 274], the logP is 2.14^[b] under setting [4] and 2.10^[c]; under setting [5].

Consider `Cc1ccccc1C(=O)NC1CC1c1ccc(Cl)cc1` (stereo not drawn) [Compound 276], for which the logP reads like this: under setting [4], 2.76^[b]; under setting [5], 2.70^[c];.

For the compound `O=C(NC1CCCC1c1c(F)cccc1F)c1ccccc1C(F)(F)F` (stereo not drawn) [Compound 323], the logP under setting [4] was 3.43^[b].

As to `O=C(NC1CC1c1ccc(Cl)cc1)c1ccsc1I` (stereo not drawn) [Compound 460], the logP is, setting by setting: under setting [4], 2.94^[b]; under setting [5], 2.93^[c];.

On to `O=C(NC1CCC1c1ccc(F)cc1C(F)(F)F)c1ncccc1Cl` (stereo not drawn) [Compound 478], for which the logP under setting [4] was 3.39^[b].

`Cn1cc(C(=O)NC2CC2c2ccccc2)c(C(F)(F)F)n1` (stereo not drawn) [Example 4]: the logP under setting [2] is 2.34^[b].

On to `Cc1nn(C)c(F)c1C(=O)NC1CC1c1ccccc1` (stereo not drawn) [Example 5], for which the logP under setting [2] is 2.00^[b].

With `Cc1nn(C)cc1C(=O)NC1CC1c1ccccc1` (stereo not drawn) [Example 6], the logP under setting [2] is 1.70^[b].

In the case of `Cc1nc(C(F)(F)F)c(C(=O)NC2CC2c2ccccc2)s1` (stereo not drawn) [Example 8], the logP under setting [2] is 2.66^[b].

Turning to `Cc1nn(C)c(Cl)c1C(=O)NC1CC1c1ccccc1` (stereo not drawn) [Example 9], under setting [2], the logP was 2.12^[b].

Consider `Cc1nn(C)c(F)c1C(=O)NC1CC1c1ccc(Cl)cc1` (stereo not drawn) [Example 12], for which the logP under setting [2] was 3.04^[b].

On to `Cc1nn(C)c(C)c1C(=O)NC1CC1c1ccc(Cl)cc1` (stereo not drawn) [Example 13], for which the logP under setting [2] is 2.89^[b].

Regarding `Cc1nn(C)c(Cl)c1C(=O)NC1CC1c1ccc(Cl)cc1` (stereo not drawn) [Example 14], the logP under setting [2] is 2.22^[b].

Consider `Cc1nn(C)c(C)c1C(=O)NC1CC1c1ccc(F)cc1` (stereo not drawn) [Example 15], for which the logP under setting [2] is 2.84^[b].
